{"source": "patent US20210308270A1", "about": "“SYSTEMS AND METHODS FOR INTRACELLULAR DELIVERY VIA NON-CHARGED SEQUENCE-DEFINED CELL-PENETRATING OLIGOMERS” (priority 2018, published 2021)", "key": {"[1]": {"system": "Listeria monocytogenes DP-L1942", "test": "In vitro intracellular infection assay in J774 cells", "type": "cell-based", "protocol": "In vitro Intracellular Infection Assay: 100,000 cells/well J774 cells in DMEM supplemented with 10% FBS without pen-strep, referred to as normal growth media, were plated in a 24-well plate and incubated for 20-24 hrs before use. Listeria monocytogenes DP-L1942 strain was taken from an exponentially growing culture (OD600 of ˜0.5) and washed with 1×PBS pH 7.4. Macrophages were infected with 200,000 bacteria in normal growth media to achieve an initial infection of approximately two bacteria per cell (MOI=2). The cells were washed twice with PBS at 30 mins after infection and supplemented with normal growth media. At 1-hr post infection, gentamicin (50 μg/ml) was added to eliminate all extracellular bacteria. The cells were then washed twice with PBS after 30 mins of incubation and supplemented with normal growth media. At 2-hr post infection, 30 μM of CPOT-vancomycin conjugates were added to the infected cells and incubated for 4 hrs. At the end of the incubation period, macrophages were washed twice with PBS, and the cells were lysed with 0.1% Triton-X in PBS. The cell lysate was diluted 10× in Brain Heart Infusion (BHI) broth and plated in a 96-well plate. The plate was incubated at 37° C. with agitation. The growth curve kinetics were generated from the absorbance measurements at 600 nm taken every 5 mins for 14 hrs."}, "[2]": {"system": "J774 cells", "test": "Uptake of fluorescein cargo by oligoTEAs, flow cytometry, J774", "type": "cell-based", "conditions": "5 μM, 1 hr", "protocol": "(§1) After the incubation, cells were washed with PBS. […] Results were analyzed by FlowJo software."}, "[3]": {"system": "HeLa cells", "test": "Cellular uptake of fluorescein conjugates by flow cytometry, HeLa", "type": "cell-based, human", "protocol": "(§2) After the incubation, cells were washed with PBS and incubated with 200 μL of Trypsin EDTA at 37° C. for 3-5 mins. 1 mL of DMEM with 10% FBS was then added to quench the trypsin. […] Results were analyzed by FlowJo software.\nDose-dependent uptake: The standard uptake procedure was followed, except that cells were treated with the labeled oligoTEAs at 0.5 μM to 5 μM. All other conditions remained the same.\nUptake kinetics study: The standard uptake procedure was followed, except that cells were treated with fluorescein-PEO^2-B at 2.5 μM for 15-120 mins (minutes). After the incubation, the plate was cells were washed with PBS and incubated with 200 μL of Trypsin EDTA at 37° C. for 3-5 mins. All other conditions remained the same.\n(§3) Mechanism of uptake: The standard uptake procedure was followed with the following changes for each mechanistic condition. Readings were taken on a FACSAria™ Fusion flow cytometry analyzer (Becton Dickinson).\nUptake with and without serum: Prior to treatment, cells were washed with PBS. Cells were then incubated with fluorescein conjugates in either DMEM with 10% FBS or Opti-MEM at 37° C. for 1 hr. Following treatment, cells were washed with PBS before addition of Trypsin EDTA.\nPretreatment with heparin sulfate: Prior to treatment, fluorescein conjugates were incubated with different concentrations of heparin sulfate and DMEM with 10% FBS in Eppendorf® tubes for 30 mins at 37° C. Cells were washed with PBS, and incubated with the treatment solutions at 37° C. for 1 hr. Following treatment, cells were washed with PBS once more before addition of Trypsin EDTA.\n(§4) Temperature dependence: Prior to treatment, fluorescein conjugates were incubated with DMEM with 10% FBS in Eppendorf® tubes for 30 mins at 37° C. or 4° C. Cells were washed with warm (37° C.) or cool (4° C.) PBS for 5 mins. Pre-warmed or pre-cooled fluorescein conjugate solution was then added, and cells were incubated at 37° C. or refrigerated at 4° C. for 1 hr. Following treatment, cells were washed with PBS before addition of Trypsin EDTA.\n(§5) Uptake with and without NaN3 and 2-deoxy-D-glucose (DOG): Prior to treatment, cells were washed with PBS. Cells were then incubated with 10 mM NaN3 and 25 mM DOG in DMEM with 10% FBS at 37° C. for 1 hr. Fluorescein conjugates were added, and cells were incubated at 37° C. for another hour. Following treatment, cells were washed with PBS before addition of Trypsin EDTA.\nas §5, with “chlorpromazine (CPM):” for “NaN3 and 2-deoxy-D-glucose (DOG):”, “5 μg/mL (or 15.7 μM) CPM” for “10 mM NaN3 and 25 mM DOG”, “EDTA. […]” for “EDTA.”"}, "[4]": {"system": "MC-3T3-E1 cells", "test": "Uptake of fluorescein cargo by oligoTEAs, flow cytometry, MC-3T3-E1", "type": "cell-based", "conditions": "5 μM, 1 hr", "protocol": "as §1"}, "[5]": {"system": "SKOV-3 cells", "test": "Cellular uptake of fluorescein conjugates by flow cytometry, SKOV-3", "type": "cell-based, human", "protocol": "as §2, §3, §4, §5\n(§6) Uptake with and without chlorpromazine (CPM): Prior to treatment, cells were washed with PBS. […]"}, "[6]": {"system": "HeLa cells", "test": "Live-cell confocal microscopy and time-lapse imaging", "type": "cell-based, human", "protocol": "Live-Cell confocal microscopy: 70,000 HeLa cells/chamber were plated in a 4-chamber 35-mm glass-bottom microwell dish ([…]) and cultured at 37° C. for 20-24 hrs. […] For co-localization experiments, cells were incubated with fluorescein conjugates along with 150 nM Transferrin-Alexa Fluor 647, or 150 μM Dextran-Alexa Fluor 647 for 1 hr at 37° C. Cells were gently washed 3 times with PBS, and FluoroBrite DMEM Media supplemented with 10% FBS was added to each chamber for imaging. Images were taken on a Zeiss LSM880 live-cell confocal/multiphoton inverted microscope, equipped with a 63× oil objective, with 488-nm and 633-nm lasers enabled for fluorescein and Transferrin-Alexa Fluor 647/Dextran-Alexa Fluor 647, respectively. Images were processed using Fiji software. Time-lapse live-cell imaging: 70,000 HeLa cells/chamber were plated in a 4-chamber 35-mm glass-bottom microwell dish ([…]) and cultured at 37° C. for 20-24 hrs. […] Images were taken on a Zeiss LSM880 live-cell confocal/multiphoton inverted microscope, equipped with a 63× oil objective, with 488-nm laser enabled for fluorescein. Images were processed using Fiji software."}, "[7]": {"system": "HEK293 cells", "test": "Cellular uptake of fluorescein conjugates by flow cytometry, HEK293", "type": "cell-based, human", "protocol": "as §2, §3, §4, §5, §6"}}, "data": [{"molecule": "O=C(O)c1cn(C2CC2)c2cc(N3CCNCC3)c(F)cc2c1=O", "note": "[Ciprofloxacin]", "values": [{"measurement": "inhibition at 30 µM", "setting": "[1]; Listeria monocytogenes, DPL1942, J774, 4 h, read-out: inhibition of bacteria growth", "value": "> 80", "unit": "%"}]}, {"molecule": "CN[C@H](CC(C)C)C(=O)N[C@H]1C(=O)N[C@@H](CC(N)=O)C(=O)N[C@H]2C(=O)N[C@H]3C(=O)N[C@H](C(=O)N[C@H](C(=O)O)c4cc(O)cc(O)c4-c4cc3ccc4O)[C@H](O)c3ccc(c(Cl)c3)Oc3cc2cc(c3O[C@@H]2O[C@H](CO)[C@@H](O)[C@H](O)[C@H]2O[C@H]2C[C@](C)(N)[C@H](O)[C@H](C)O2)Oc2ccc(cc2Cl)[C@H]1O", "note": "[vancomycin]", "values": [{"measurement": "inhibition of bacteria growth", "setting": "[1]; 30 μM, 4 hrs treatment, 14th hour of growth curve", "value": "little to no effect on bacteria growth"}]}, {"molecule": "Ac-RRRRRRRRRK-Am (Ac-RRRRRRRRRK-NH2) [R9, widely used cationic CPP, purchased from GenScript]", "values": [{"measurement": "trend of uptake of fluorescein cargo", "setting": "[2]", "value": "R9 (PEG-Bu)4>(BDT-PEG)4>(BDT-PEG4)4˜(PEG-PEG)4"}, {"measurement": "temperature dependence of uptake, 4° C. vs 37° C.", "setting": "[3]", "value": "weaker dependence on temperature"}, {"measurement": "increase of uptake in the absence of serum", "setting": "[3]; Opti-MEM vs DMEM with 10% FBS", "value": 2, "unit": "fold"}, {"measurement": "effect of endocytosis inhibitors on uptake", "setting": "[3]; chlorpromazine (clathrin), filipin III (caveolae), cytochalasin D (macropinocytosis)", "value": "dependence on clathrin in HeLa cells and macropinocytosis in both HEK293 and HeLa cells"}, {"measurement": "decrease of uptake in the presence of heparin sulfate", "setting": "[3]; conjugate pretreated with heparin sulfate 30 mins", "value": 6, "unit": "fold"}, {"measurement": "trend of uptake of fluorescein cargo", "setting": "[4]", "value": "R9 (PEG-Bu)4>(BDT-PEG)4>(BDT-PEG4)4˜(PEG-PEG)4"}, {"measurement": "temperature dependence of uptake, 4° C. vs 37° C.", "setting": "[5]", "value": "weaker dependence on temperature"}, {"measurement": "subcellular distribution", "setting": "[6]; 5 μM fluorescein conjugate, 1 hr, 63×", "value": "primarily as punctate spots"}, {"measurement": "temperature dependence of uptake, 4° C. vs 37° C.", "setting": "[7]", "value": "weaker dependence on temperature"}, {"measurement": "effect of endocytosis inhibitors on uptake", "setting": "[7]; chlorpromazine, filipin III, cytochalasin D", "value": "macropinocytosis in both HEK293 and HeLa cells"}]}, {"molecule": "fluorescein acid", "values": [{"measurement": "internalization in time-lapse live cell imaging", "setting": "[6]; 2.5 μM, trypan blue present, 60 mins", "value": "no internalization"}]}]}
